Reference: article PMC9741104, “Uptake of Flaxseed Dietary Linusorbs Modulates Regulatory Genes Including Induction of Heat Shock Proteins and Apoptosis” (Foods, 2022)
Values joined by “and” are separate entries in the source; they are usually repeats but may differ in a detail not shown here. Identical values can stand only once. Like-named read-outs stand apart in the source and are kept apart here. Marks after values point to notes of the source that are not given here.

Assays:
Calu-3 cells = test: Microarray analysis of apoptosis-regulating genes (Rt2 Profiler PCR Super Array); assay type: cell-based, human; design: key: +: genes over-expressed; NE: not expressed; –: genes under-expressed; settings: Calu-3 exposed to LOs
Protocol: Human bronchial epithelial adenocarcinoma cell line (Calu-3) was obtained from the American Type Culture Collection (ATCC, Manassas, VA, USA). Calu-3 cell line was cultured in plastic culture flasks containing Modified Eagle’s Medium (MEM) and supplemented with 10% fetal bovine serum, glutamine (4 mM), and penicillin (100 U/mL)-streptomycin (100 μg/mL) solution. Cells were cultured to a density of 10^6 cells/mL before adding fresh media (on day 3). The cells were then grown at 37 °C under 5% CO2, and 100% humidity.
Microarray analysis was performed to determine LO effects on the expression of genes involved in regulating apoptosis (i.e., pro- or anti-apoptotic genes) in Calu-3 cells. These analyses were using an Rt2 Profiler PCR Super Array kit (Super Arrays Bioscience Corp., Frederick, MD, USA) following manufacturer’s instructions and were recorded using an MX3005P LightCycler (Stratagene, La Jolla, CA, USA).

[1] = Circular dichroism secondary structure estimate in aqueous-DMSO solution; assay type: physicochemical; settings: CD spectra 260–200 nm, H2O/DMSO (3%, v/v), room temperature, CDNN deconvolution, triplicate
Protocol: Circular dichroism (CD) spectroscopy was performed on LO samples using a fresh solution of aqueous-dimethylsulfoxide solution (H2O/DMSO, 3%, v/v). CD measurements were completed using a Pistar 180 spectrometer (Applied Photophysics Ltd., Leatherhead, UK). Sample measurements were conducted at room temperature using a 0.01 cm cuvette (Hellma 106-QSP), and samples were scanned between 200–260 nm at 0.5 nm increments, with a scan rate of 10 nm/min. The instrument was calibrated using (+)-10-camphorsulfonic acid (290.5 nm wavelength). Experiments were performed in triplicate and are reported as mean ± standard deviation (SD). The secondary structure content of the samples was evaluated with the CDNN CD Spectroscopy Deconvolution software version 2.0.3.188 [30]. Molar ellipticities were calculated from molecular masses of 977.26–1074.37 Da for LOs. All spectra were corrected by background subtraction of H2O/DMSO (3%, v/v).

[2] = LOs in pig adipose after flaxseed diet (HPLC-ToF-MS); settings: pig fed diet with 15% extruded flaxseed meal; fat biopsy at 10th rib, chloroform extract, HPLC-ToF-MS molecular ions
Text: Swine were fed a diet consisting of 15% flaxseed meal that was combined with other ingredients then extruded. Swine fat samples were taken from an 8 mm biopsy punch at the 10th rib, approximately 5 cm from the backbone [31]. The tissue samples were then extracted with chloroform and the extracts were dried, taken up in acetonitrile, and analyzed via direct loop injections using an Agilent 1100-series high-performance liquid chromatography (HPLC, Agilent, Santa Clara, CA, USA) equipped with a time-of-flight mass spectrometer (ToF-MS). Each sample extract was injected at a flow rate of 50 μL/min. The mobile phase consisted of 95% water: methanol containing 0.1% formic acid, and 5% acetonitrile.

C. elegans = test: Lethality in nematode cultures; assay type: in vivo, Caenorhabditis elegans; settings: 100 µM, 2 h exposure
HSP 70A = test: Induction of HSP 70A in nematodes (qRT-PCR); assay type: in vivo, Caenorhabditis elegans; settings: 2 h exposure, normalized to GAPDH, three repetitions
Protocol: Gene expression of HSP 70A in nematodes was completed as described in Saini et al. (2011). Briefly, C. elegans N2 strains were cultured in the dark and at room temperature on sterile plates (10 mm; VWR, Edmonton, AB, Canada) containing 10% bacteriological agar (Sigma-Aldrich, Oakville, ON, Canada) and autoclaved Baker’s yeast (1%, w/v). C. elegans were sub-cultured every 14 days to fresh plates. Exposure experiments began using C. elegans, which were two weeks old. These cultures were exposed for 2 h to either DMSO (negative control) or various concentrations (0.1, 1.0, 10.0, and 100.0 µM) of LOB3 dissolved in DMSO. After exposure, these organisms were then re-cultured to assess the effects of LOB3 on HSP 70A gene expression. An unamended culture medium was used as the control treatment. After treatment, cultures were centrifuged at 400× g for 10 min at 4 °C. The pellet was retained and stored at −80 °C until further analysis.
RNeasy® Mini kits (Qiagen, Mississauga, ON, Canada) were used to extract total RNA from C. elegans lysates, according to the manufacturer’s instructions. RNA quality was confirmed and quantified using agarose gel electrophoresis and a Nano Drop® spectrophotometer (Thermo Fisher Scientific, Ottawa, ON, Canada), respectively. […] This was accomplished using a Stratagene MX3005P LightCycler (La Jolla, CA, USA). The glyceraldehyde-3-phosphate dehydrogenase gene (GAPDH; GenBank Accession No. X04818) was used as the reference housekeeping gene for qRT-PCR analyses. The primer pairs used during qRT-PCR are listed in Table 2. qRT-PCR reactions were performed using QuantiFast® SYBR® Green PCR kit (Qiagen, Mississauga, ON, Canada) following the manufacturer’s instructions. The thermocycler conditions included an initial denaturation at 95 °C for 5 min, followed by 45 cycles of denaturation at 95 °C for 30 s, annealing at 55 °C for 30 s and elongation at 60 °C for 45 s, to amplify the target gene. Relative gene expression levels were corrected against the GAPDH housekeeping gene using MXPro software. All analyses were completed in triplicate.

cancer C6 cells = settings: cited from earlier work
[3] = administered orally and intravenously, cited from earlier work
Text: The combined characteristics of the strong immunosuppressive activity and low toxicity make LOB3 an immunosuppressive drug candidate. Other LOs and their analogs have also been investigated for their immunosuppressant activity. […] Similarly, [1–8-NαC], [1-(Rs, Ss)-MetO]-linusorb B1 (LO1OB1, also known as CLE) ...

[4] = test system: breast cancer cell line MDA-MB-231; settings: doses lower than 10 µM; cited from earlier work

| Substance | BAK1 (BCL2 antagonist/killer 1) up- or down-regulated (Calu-3 cells) | BCL2 (B-cell lymphoma 2) up- or down-regulated (Calu-3 cells) | CASP10 (Caspase 10) up- or down-regulated (Calu-3 cells) | CIDEA (Cell death-inducing DFFA-like effector A) up- or down-regulated (Calu-3 cells) | CIDEB (Cell death-inducing DFFA-like effector B) up- or down-regulated (Calu-3 cells) | Fas (TNF receptor superfamily member 6) up- or down-regulated (Calu-3 cells) | FasL (Fas ligand) up- or down-regulated (Calu-3 cells) | HRK (Harakiri) up- or down-regulated (Calu-3 cells) | TNF (Tumor necrosis factor) up- or down-regulated (Calu-3 cells) | TP53 (Tumor protein p53) up- or down-regulated (Calu-3 cells) | TP53BP2 (Tumor protein p53 binding protein 2) up- or down-regulated (Calu-3 cells) | Antiparallel (%) [1] | Parallel (%) [1] | Random Coil (%) [1] | α-Helix (%) [1] | β-Turn (%) [1] | also measured |
| --- | --- | --- | --- | --- | --- | --- | --- | --- | --- | --- | --- | --- | --- | --- | --- | --- | --- |
| [1–8-NαC], [1-(Rs, Ss)-MetO]- linusorb B1 [LO1OB1] | NE | – ^c | NE | + | + | + | NE | + | + | NE | + | 0.00% | 0.30% | 18.20% | 75.30% | 6.20% |  |
| [1–9-NαC]-linusorb B3 [LOB3] | + ^a |  | NE | NE | + | + | + | NE | + | + | + | 0.00% | 0.3% | 0.1% | 98.90% | 0.7% | Distribution to adipose tissue [2]: trace amounts; Lethality (C. elegans): lethal; Increase in HSP 70A production (HSP 70A; 0.1 µM): 30%; Increase in HSP 70A production (HSP 70A; 1.0 µM): 3.5 fold; Increase in HSP 70A production (HSP 70A; 10.0 µM): 30%; Cytotoxic effects (cancer C6 cells; concentrations greater than 10.0 µM, changes in cell shape and reduction in cell numbers): cytotoxic effects were observed; Cytotoxic effects (cancer C6 cells; doses lower than 10 µM): no cytotoxic effects; Toxicity ([3]; mice): non-toxic; Toxicity ([3]; rats): non-toxic; Cytotoxic effects [4]: no cytotoxic effects |
| [1–9-NαC], [1-(Rs, Ss)-MetO]- linusorb B2 [LO1OB2] | NE ^b | – | + | + | + | + | NE | + | + | + | + | 0.00% | 0.40% | 0.10% | > 75% and 98.90% | 0.60% |  |
